{"source": "patent US5049372A", "about": "“Anticancer activities in a host by increasing blood and plasma adenosine 5'-triphosphate (ATP) levels” (priority 1988, dated 1991)", "key": {"[1]": {"test_system": "CT26 colon adenocarcinoma", "test": "Growth inhibition of footpad CT26 colon adenocarcinoma in CB6F1 mice, second series (FIGS. 2 and 3)", "type": "in vivo, mouse", "details": "for Inhibition of tumor growth, schedule ending before inoculation: 12 consecutive days, ending one day before tumor inoculation; for Anticancer activities against established footpad CT26 colon adenocarcinoma: CB6F1 mice, in words; for Deaths before stated day after tumor inoculation: FIG. 2 experiment, palpable CT26 tumors, 10 animals per group; for Inhibition of growth of palpable CT26 tumors (in words): daily i.p. in 2.2 ml saline, pH 6.2, 12 days, starting after tumors palpable, equimolar amounts", "procedure": "(§1) A further series of tests are conducted whereby tumors are inoculated by injections of 2.5×10^5 CT26 cells (over 90% viability) in 50 μl of phosphate-buffered saline into the right hind footpad of CB6F1 mice. The treatments were initiated at a variety of times after inoculation of the tumors. The injection schedules started either 1 or 5 days after tumor inoculation when none of the tumors are palpable or when the tumors are clearly palpable (average calculated weight of 100 mg), which occur in 100% of the inoculated mice after 8-11 days. Mice are randomized, divided into groups, and injected daily with 2.2 ml of saline, adenosine, AMP, or ATP (compounds are in sterile saline solutions at concentrations of 25 mM with AMP and ATP solutions adjusted to pH 6.2). Injections are administered intraperitoneally with 30 gauge needles and the mice are lightly anesthetized with […]. The mice are weighed and tumor sizes measured before the start of the treatment schedule and every three days during and after the treatment schedule. These determinations are performed before injections during the treatment period.\n(§2) In particular, see FIG. 2. FIG. 2 illustrates inhibition of tumor growth (---) and host weight loss (-) in tumor-bearing mice by treatment with adenine nucleotides. Mice (CB6F1, 8 week old males) bearing palpable CT26 footpad tumors (on day 9 after tumor inoculation) are treated with saline (.smallcircle.), adenosine (o), AMP (Δ), or ATP (.quadrature.) as described herein. An untreated group is also included (x). Arrows indicate days of injection.\nThe magnitude of the antitumor activities of AMP and ATP depends to a small extent on the pH of the solution administered intraperitoneally. This property is probably related to the number of negative charges on the phosphate groups (the pKa of the secondary phosphate is around 6.6). AMP and especially ATP have some buffering capacity, and at a pH below 6.6 they carry a smaller net charge than at a physiological pH. The lower charge of these molecules enhances the initial (first hour) transport of AMP and ATP across the peritoneal membrane and into the systemic circulation (see Torres, et al., 1978, Pharmacol., 17, 330-340). […] The treatment schedule of palpable CT26 tumors which is illustrated in FIG. 2 consistently yields 10-20% of \"cures\". These mice remain tumor-free for at least two months.\nFIG. 3 further illustrates inhibition of host weight loss in tumor-bearing animals by treatment with adenine nucleotides. Mice (CB6F1, males, 7 weeks old, in A, 10 weeks old in B, […]) with saline (.smallcircle.), adenosine (o), AMP (Δ), or ATP (.quadrature.) are initiated 1 day (A), 5 days (B), or 9 days after tumor inoculation (when all the tumors were palpable) (C). Arrows indicate days of injection. Experimental procedures were outlined in the text."}, "[2]": {"test_system": "RBC ATP pools", "test": "RBC ATP pools after in vitro incubation of whole mouse blood with 1 mM compound (Table 6)", "type": "cell-based", "details": "for RBC ATP pools (after 30 min incubations in heparinized mouse blood): 1 mM compound, bioluminometry", "procedure": "^+ RBC ATP pools were determined in isolated washed RBCs after\nincubations of whole blood with 1 mM of the specified compound by\nbioluminometry. Data represent means ± S.D. of three separate"}, "[3]": {"test": "Inhibition of host weight loss (cancer cachexia) in CT26 tumor-bearing mice", "type": "in vivo, mouse", "details": "FIG. 3; treatment initiated day 1 (A), day 5 (B) or day 9 (C)", "procedure": "as §1, §2\nFIG. 3 further illustrates inhibition of host weight loss in tumor-bearing animals by treatment with adenine nucleotides. Mice (CB6F1, males, 7 weeks old, in A, 10 weeks old in B, C) are inoculated with CT26 tumors and daily treatments (for 10 consecutive days) with saline (.smallcircle.), adenosine (o), AMP (Δ), or ATP (.quadrature.) are initiated 1 day (A), 5 days (B), or 9 days after tumor inoculation (when all the tumors were palpable) (C). Arrows indicate days of injection. Experimental procedures were outlined in the text."}, "[4]": {"test_system": "tumor cells", "details": "low doses; prior application Ser. No. 397,897; cited from earlier work"}}, "data": [{"smiles": "Nc1ncnc2c1ncn2[C@@H]1O[C@H](COP(=O)(O)O)[C@@H](O)[C@H]1O", "note": "[AMP, adenosine 5'-monophosphate]", "values": [{"measurement": "Inhibition of tumor growth, schedule ending before inoculation", "setting": "[1]", "result": "No inhibition of tumor growth"}, {"measurement": "Anticancer activities against established footpad CT26 colon adenocarcinoma", "setting": "[1]", "result": "exhibit significant anticancer activities"}, {"measurement": "Deaths before stated day after tumor inoculation", "setting": "[1]", "result": "No deaths occurred before day 22"}, {"measurement": "Inhibition of growth of palpable CT26 tumors (in words)", "setting": "[1]", "result": "significantly inhibit the growth of this fast-growing tumor"}, {"measurement": "Inhibition of tumor growth relative to ATP", "setting": "[1]; treatment initiated one day after tumor inoculation", "result": "as effective as ATP in inhibiting tumor growth"}, {"measurement": "Increase in RBC ATP pools after in vitro treatment of whole mouse blood (in words)", "setting": "[2]", "result": "marginal increases in RBC ATP pools"}, {"measurement": "RBC ATP pools (after 30 min incubations in heparinized mouse blood)", "setting": "[2]", "result": "0.73 ± 0.10", "unit": "µM"}, {"measurement": "Deaths before stated day after tumor inoculation", "setting": "[3]", "result": "No deaths occurred before day 19 (A) or day 25 (B,C)"}, {"measurement": "Effect on growth of tumor cells in vitro (in words)", "setting": "[4]", "result": "would not inhibit cellular growth"}]}, {"smiles": "Nc1ncnc2c1ncn2[C@@H]1O[C@H](COP(=O)(O)OP(=O)(O)OP(=O)(O)O)[C@@H](O)[C@H]1O", "note": "[ATP, adenosine 5'-triphosphate]", "values": [{"measurement": "Inhibition of tumor growth, schedule ending before inoculation", "setting": "[1]", "result": "No inhibition of tumor growth"}, {"measurement": "Anticancer activities against established footpad CT26 colon adenocarcinoma", "setting": "[1]", "result": "exhibit significant anticancer activities"}, {"measurement": "Deaths before stated day after tumor inoculation", "setting": "[1]", "result": "No deaths occurred before day 22"}, {"measurement": "Inhibition of tumor growth, palpable tumors, relative to AMP", "setting": "[1]; applied to palpable tumors (FIG. 2)", "result": "more pronounced than that obtained with AMP"}, {"measurement": "Inhibition of growth of palpable CT26 tumors (in words)", "setting": "[1]", "result": "significantly inhibit the growth of this fast-growing tumor"}, {"measurement": "Increase in RBC ATP pools after in vitro treatment of whole mouse blood (in words)", "setting": "[2]", "result": "marginal increases in RBC ATP pools"}, {"measurement": "RBC ATP pools (after 30 min incubations in heparinized mouse blood)", "setting": "[2]", "result": "0.76 ± 0.05", "unit": "µM"}, {"measurement": "Deaths before stated day after tumor inoculation", "setting": "[3]", "result": "No deaths occurred before day 19 (A) or day 25 (B,C)"}, {"measurement": "Effect on growth of tumor cells in vitro (in words)", "setting": "[4]", "result": "marked inhibition of DNA synthesis and arrest of significant populations of cells in the S phase of their cycle"}]}]}
